Assay results: paper PMC11597774, “Investigation of Antimicrobial and Anti-Inflammatory Efficacy of Newly Synthesized Pyrogallol-Coumarin Hybrids: In Vitro and In Silico Studies” (Pharmaceutics, 2024)
In brackets after ≈: the same amount, converted by molar mass. One block for each compound: values may come before it.

Legend:
[1] = biological target: T1, Soybean lipoxygenase (Type I-B) (Glycine max, UniProt P08170); experiment: In vitro LOX inhibition assay; type: biochemical; conditions: for inhibition at 25 µM / inhibition at 50 µM / inhibition at 100 µM: read-out: Anti-LOX Activity (%); for IC50: sodium linoleate substrate, tris buffer pH 9, read-out: IC50 (µM), in vitro lipoxygenase inhibitory activity
T1 construct: purchased Merck (KGaA, Darmstadt, Germany)
T1 sequence (P08170 1-839): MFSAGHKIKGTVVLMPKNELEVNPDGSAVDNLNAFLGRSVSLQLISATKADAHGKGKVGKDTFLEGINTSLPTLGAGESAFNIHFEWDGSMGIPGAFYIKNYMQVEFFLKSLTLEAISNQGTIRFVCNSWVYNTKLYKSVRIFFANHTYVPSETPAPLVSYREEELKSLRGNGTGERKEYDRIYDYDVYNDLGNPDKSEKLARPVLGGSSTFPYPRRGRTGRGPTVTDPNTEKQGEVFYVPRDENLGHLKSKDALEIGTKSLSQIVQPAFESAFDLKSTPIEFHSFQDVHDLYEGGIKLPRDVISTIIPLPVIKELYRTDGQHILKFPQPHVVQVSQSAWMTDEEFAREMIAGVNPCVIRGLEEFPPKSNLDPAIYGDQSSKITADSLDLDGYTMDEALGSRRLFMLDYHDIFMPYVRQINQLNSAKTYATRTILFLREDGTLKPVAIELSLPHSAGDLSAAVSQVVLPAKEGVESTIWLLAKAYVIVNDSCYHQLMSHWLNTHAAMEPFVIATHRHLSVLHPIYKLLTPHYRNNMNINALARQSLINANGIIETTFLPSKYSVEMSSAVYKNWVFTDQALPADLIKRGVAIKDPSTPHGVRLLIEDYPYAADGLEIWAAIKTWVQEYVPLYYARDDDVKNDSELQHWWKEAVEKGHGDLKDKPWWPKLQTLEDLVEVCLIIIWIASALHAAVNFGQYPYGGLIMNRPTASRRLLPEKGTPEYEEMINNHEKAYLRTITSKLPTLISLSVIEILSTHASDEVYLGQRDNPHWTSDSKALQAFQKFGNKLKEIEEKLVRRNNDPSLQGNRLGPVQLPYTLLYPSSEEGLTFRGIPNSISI
Description: Soybean lipoxygenase (Type I-B) is a very often used enzyme for the investigation of anti-inflammatory properties of compounds [38]. The LOX inhibition assay measures the rate of oxidation of linoleic acid by lipoxygenase, which results in the formation of a colorless product that can be detected spectrophotometrically. This enzyme catalyzes the conversion of linoleic acid into hydroperoxy fatty acids and results in increased absorbance at 234 nm. The tested compounds dissolved in DMSO were incubated at room temperature with sodium linoleate (3 mM in tris buffer pH = 9) and enzyme solution (5 × 10^3 units/mL in saline). The activity for each tested compound was presented as IC50 value ± standard deviation (SD) of three independent measurements.

S. aureus ATCC 25923 [2] = experiment: Inhibition of biofilm formation (crystal violet); type: cell-based, Staphylococcus aureus
L. plantarum 299V = experiment: Microdilution MIC/MMC with resazurin; type: cell-based, Lactobacillus plantarum
Procedure: (§1) The antimicrobial activity of PCH-1 and PCH-2 was tested against 13 microorganisms. The experiment included four standard strains, Staphylococcus aureus ATCC 6538, Bacillus subtilis ATCC 6633, Proteus mirabilis ATCC 12453, and Pseudomonas aeruginosa ATCC 27853; five isolates, Staphylococcus aureus, Escherichia coli, Salmonella enterica, Klebsiella pneumoniae, and Bacillus subtilis; and one probiotic strain Lactobacillus plantarum 299V. Additionally, three fungal strains were tested, including one standard strain, Candida albicans ATCC 10231, and two isolates, Saccharomyces cerevisiae and probiotic strain Saccharomyces boulardii.
(§2) The bacterial suspensions were prepared using the direct colony method. The turbidity of the initial suspension was adjusted using a densitometer (DEN-1, BioSan, Latvia). When adjusted to the turbidity of the 0.5 McFarland standard, the bacterial suspension contains approximately 10^8 colony-forming units (CFU)/mL, and the yeast suspension contains approximately 10^6 CFU/mL. For the experiment, the initial suspension was further diluted at a 1:100 ratio in a sterile 0.85% saline solution.
(§3) The antimicrobial activity was assessed by determining the minimum inhibitory concentrations (MICs) and minimum microbicidal concentrations (MMCs) using the microdilution plate method with resazurin (Alfa Aesar GmbH & Co. (KG, Karlsruhe, Germany)). For this, 96-well plates were prepared by adding 100 μL of Mueller Hinton broth (Torlak, Belgrade, Serbia) for bacterial tests and Sabouraud broth (Torlak, Belgrade, Serbia) for yeast into each well. The tested PCH-1 and PCH-2 were dissolved in 10% dimethyl sulfoxide (DMSO) and then diluted into sterile distilled water. A 100 μL sample from the stock solution of the tested compound was then added to the first row of the plate, followed by twofold serial dilutions using a multichannel pipette. This produced a concentration range from 2.69 to 0.0025 µmol/L. The method is described in detail in the reported paper.
(§4) Each test setup included growth control and sterility control. […] Minimum microbicidal concentrations (MMCs) were determined as described in detail in the reported paper.

S. enterica = experiment: Microdilution MIC/MMC with resazurin; type: cell-based, Salmonella enterica; conditions: S. enterica
Procedure: as §1, §2, §3, §4

P. aeruginosa ATCC 27853 [3] = experiment: Microdilution MIC/MMC with resazurin; type: cell-based, Pseudomonas aeruginosa
Procedure: as §1, §2, §3, §4

P. aeruginosa ATCC 27853 [4] = experiment: Inhibition of biofilm formation (crystal violet); type: cell-based, Pseudomonas aeruginosa
Procedure: (§5) The ability of S. aureus ATCC 6538, P. mirabilis ATCC 12453, and P. aeruginosa ATCC 27853 to form biofilms was assayed as described by O’Toole et al. (2000), with some modifications. Briefly, tissue culture 96-well microtiter plates (Sarstedt, Germany) were prepared by dispensing 100 µL of nutrient broth (i.e., Mueller Hinton broth) into each well. Then, 10 µL of spore suspension (1.0 McFarland for Gram-positive bacteria and 0.5 McFarland for Gram-negative bacteria) was added to each row. To encourage biofilm formation, all plates were incubated at 37 °C for 48 h, after which the content of each well was emptied and washed twice with 200 µL of sterile 0.85% saline to remove non-adherent cells. The biofilms formed were fixed by adding 100 µL of methanol until it evaporated completely, then stained with 0.1% (w/v) crystal violet (Fluka AG, Buchs, Switzerland) and left at room temperature for 20 min. The excess stain was washed away with deionized water, followed by […] of 96% ethanol. The optical densities (ODs) of the stained biofilms were measured with an ELISA plate reader (RT-2100C, Rayto, Shenzhen, China) at 630 nm. Control wells containing only broth were included to verify sterility and prevent nonspecific media binding. To account for background absorbance, OD readings from sterile medium, fixative, and dye were averaged and subtracted from all test measurements. All tests were conducted in duplicate. The tissue culture 96-well microtiter plates (Sarstedt, Germany) were prepared by dispensing 100 µL of nutrient broth (i.e., Mueller Hinton broth) into each well. From the stock solutions of tested PCH-1 and PCH-2 (at a concentration of 5.4 µmol/L), 100 µL was added to the first row of the microtiter plate. Twofold serial dilutions were then performed, followed by the addition of 10 µL of bacterial suspension to each well. The turbidity of the bacterial suspension was 0.5 McFarland for Gram-negative bacteria and 1.0 McFarland for Gram-positive bacteria. The microtiter plates prepared in this way were incubated at 37 °C for 48 h. The remaining steps of the experiment were carried out as outlined below. […] Only broth or broth with tested PCH-1 and PCH-2 served as controls to check sterility and nonspecific binding of media. To compensate for background absorbance, OD readings from sterile medium, extracts, fixative, and dye were averaged and subtracted from all test values. All tests were performed in duplicate.

S. aureus (isolate) = experiment: Microdilution MIC/MMC with resazurin; type: cell-based, Staphylococcus aureus
Procedure: as §1, §2, §3, §4

P. mirabilis ATCC 12453 [5] = experiment: Microdilution MIC/MMC with resazurin; type: cell-based, Proteus mirabilis
Procedure: as §1, §2, §3, §4

B. subtilis ATCC 6633 = experiment: Microdilution MIC/MMC with resazurin; type: cell-based, Bacillus subtilis
Procedure: as §1, §2, §3, §4

B. subtilis (isolate) = experiment: Microdilution MIC/MMC with resazurin; type: cell-based, Bacillus subtilis
Procedure: as §1, §2, §3, §4

S. aureus ATCC 25923 [6] = experiment: Microdilution MIC/MMC with resazurin; type: cell-based, Staphylococcus aureus
P. mirabilis ATCC 12453 [7] = experiment: Inhibition of biofilm formation (crystal violet); type: cell-based, Proteus mirabilis
Procedure: as §5

K. pneumoniae = experiment: Microdilution MIC/MMC with resazurin; type: cell-based, Klebsiella pneumoniae
Procedure: as §1, §2, §3, §4

E. coli = experiment: Microdilution MIC/MMC with resazurin; type: cell-based, Escherichia coli
Procedure: as §1, §2, §3, §4

S. boulardii = experiment: Microdilution MIC/MMC with resazurin; type: cell-based, Saccharomyces boulardii
Procedure: as §1, §2, §3, §4

S. cerevisiae = experiment: Microdilution MIC/MMC with resazurin; type: cell-based, Saccharomyces cerevisiae
Procedure: as §1, §2, §3, §4

C. albicans ATCC 10231 = experiment: Microdilution MIC/MMC with resazurin; type: cell-based, Candida albicans
Procedure: as §1, §2, §3, §4

SMILES: CN(C)[C@@H]1C(O)=C(C(N)=O)C(=O)[C@@]2(O)C(O)=C3C(=O)c4c(O)cccc4[C@@](C)(O)[C@H]3C[C@@H]12 [Tetracycline, reference compound]
BIC90 (S. aureus ATCC 25923 [2]; S. aureus ATCC 25923, 48 h): >2.25 mM
IC50 (S. aureus ATCC 25923 [2]; Staphylococcus aureus, ATCC25923, S. aureus ATCC 25923, 48 h, read-out: BIC50): 560 µM
MMC (L. plantarum 299V): 0.001 mM
MIC (L. plantarum 299V; Lactiplantibacillus plantarum): < 1 µM
MMC (S. enterica): 0.01 mM
MMC (P. aeruginosa ATCC 27853 [3]): 0.14 mM
MIC (P. aeruginosa ATCC 27853 [3]; Pseudomonas aeruginosa, ATCC27853): 20 µM (≈ 8.89 µg/mL)
BIC90 (P. aeruginosa ATCC 27853 [4]; P. aeruginosa ATCC 27853, 48 h): >2.25 mM
IC50 (P. aeruginosa ATCC 27853 [4]; Pseudomonas aeruginosa, ATCC27853, P. aeruginosa ATCC 27853, 48 h, read-out: BIC50): > 2250 µM
MMC (S. aureus (isolate)): <0.001 mM
MIC (S. aureus (isolate); Staphylococcus aureus): < 1 µM
MMC (P. mirabilis ATCC 12453 [5]): 0.07 mM
MIC (P. mirabilis ATCC 12453 [5]; Proteus mirabilis, ATCC12453): 35 µM (≈ 15.6 µg/mL)
MMC (B. subtilis ATCC 6633): 0.035 mM
MIC (B. subtilis ATCC 6633; Bacillus subtilis, ATCC6633): 5 µM (≈ 2.22 µg/mL)
MMC (B. subtilis (isolate)): 0.005 mM
MIC (B. subtilis (isolate); Bacillus subtilis): 2 µM (≈ 0.889 µg/mL)
MMC (S. aureus ATCC 25923 [6]): 0.005 mM
MIC (S. aureus ATCC 25923 [6]; Staphylococcus aureus, ATCC25923): < 1 µM
BIC90 (P. mirabilis ATCC 12453 [7]; P. mirabilis ATCC 12453, 48 h): >2.25 mM
IC50 (P. mirabilis ATCC 12453 [7]; Proteus mirabilis, ATCC12453, P. mirabilis ATCC 12453, 48 h, read-out: BIC50): 1310 µM
MMC (K. pneumoniae): 0.07 mM
MIC (K. pneumoniae; Klebsiella pneumoniae): 9 µM (≈ 4 µg/mL)
MMC (E. coli): 0.01 mM
MIC (E. coli; Escherichia coli): 5 µM (≈ 2.22 µg/mL)

SMILES: OC(Cn1cncn1)(Cn1cncn1)c1ccc(F)cc1F [Fluconazole, fluconazole, reference compound]
MMC (S. boulardii): 0.1 mM
MIC (S. boulardii; Saccharomyces cerevisiae): 25 µM (≈ 7.66 µg/mL)
MMC (S. cerevisiae): 0.025 mM
MIC (S. cerevisiae; Saccharomyces cerevisiae): 25 µM (≈ 7.66 µg/mL)
MMC (C. albicans ATCC 10231): 0.2 mM
MIC (C. albicans ATCC 10231; Candida albicans, ATCC10231): 100 µM (≈ 30.6 µg/mL)

SMILES: CC(=O)c1c(O)c2ccccc2oc1=O [3AcHyC, 3-acetyl-4-hydroxycoumarin]
inhibition at 25 µM [1]: 26.4 ± 1.3%
inhibition at 40 µM [1]: 35.8 ± 0.8%
inhibition at 50 µM [1]: 43.5 ± 3.1%
inhibition at 75 µM [1]: 63.4 ± 0.4%
inhibition at 100 µM [1]: 81.2 ± 0.2%
IC50 [1]: 57.9 ± 1.6 µM

Continued, values first:

inhibition at 25 µM [1]: 21.6 ± 1.4%
inhibition at 40 µM [1]: 33.9 ± 0.8%
inhibition at 50 µM [1]: 37.8 ± 1%
inhibition at 75 µM [1]: 57.5 ± 1.1%
inhibition at 100 µM [1]: 73.5 ± 0.6%
IC50 [1]: 65.4 ± 0.6 µM
SMILES: NNC(=O)c1ccc(O)c(O)c1O [H-1, 2,3,4-trihydroxybenzohydrazide]

inhibition at 25 µM [1]: 32 ± 0.1%
inhibition at 40 µM [1]: 44.4 ± 1.7%
inhibition at 50 µM [1]: 56 ± 1.1%
inhibition at 75 µM [1]: 73.4 ± 0.3%
inhibition at 100 µM [1]: 91.9 ± 0.2%
IC50 [1]: 46 ± 0.9 µM
SMILES: NNC(=O)c1cc(O)c(O)c(O)c1 [H-2, 3,4,5-trihydroxybenzohydrazide]
